melting point [°C] | Structure (SMILES)
136 | CCCCCS(=O)(=O)NC(=O)/C=C/c1ccc(OCCC(C)(C)O)cc1Oc1ncc(C(F)(F)F)cc1Cl
154 to 155 | Cc1c(NC(=O)OC(C)(C)C)cc2c(c1C)OC(C)(C)C2=O
98 to 99 | CC(C)c1nn(-c2ncc(C(F)(F)F)cn2)cc1CCCO
234 to 235 | Cc1ccc(-c2nc(=S)n(Cc3ccccc3)[nH]2)cc1
158 to 160 | NS(=O)(=O)c1cc2c(Cl)csc2s1
148 to 151 | O=C(O)COc1cc(F)ccc1C(=O)NCc1cccc([N+](=O)[O-])c1
166 to 167 | Cc1nnc(-c2ccc3occ(-c4ccncc4)c3c2)o1
240 | Cc1nc2c3c(ccn2c1C)C(=O)[C@@](C)(O)[C@@H](c1ccccc1)N3
91 to 93 | CC1(C)Oc2ccc([N+](=O)[O-])cc2C2OC21 (centres undefined)
163 to 164 | CN(C)c1ccc(N(c2ccccc2)C2(c3ccc(N(C)C)cc3)OC(=O)c3cc(N(C)C)ccc32)cc1 (centres undefined)
260 | N#Cc1ccc2c(c1)S(=O)(=O)c1ccc(F)cc1C2=O
132 to 134 | CCN(CC)CC1CCCCN1CC#CCN1c2ccccc2C(=O)Nc2cccnc21 (centres undefined)
114 to 115 | COc1cc(OC)c2c(=O)cc(-c3ccc(C(F)(F)F)cc3)oc2c1C1CCN(C)C1CO (centres undefined)
149 | O=C(c1ccccc1)c1cc([N+](=O)[O-])ccc1N(Cc1ccccc1)C(=O)CBr
177 to 178 | COc1ccc(C(=O)NCCCCCCNC(=O)c2ccc(OC)cc2)cc1
> 300 | CCc1ccc(S(=O)(=O)c2c(N)c3nncn3c3nc4ccccc4nc23)cc1
76 to 99 | COc1cc2c(cc1Nc1ncc(Cl)c(Nc3ccccc3OC)n1)CCN(C(=O)CN(C)C)CC2
152 to 153 | Cc1oc2ccc(-n3nnc4cccnc43)cc2c1C
121 to 123 | Oc1cc(OCc2ccccc2)cc(OCc2ccccc2)c1C[C@H](O)[C@@H](O)c1ccccc1

melting point [°C] | Structure (SMILES)
149 to 150 | CNC(=O)C(SC)c1cccc(C(=O)c2ccccc2)c1N (centres undefined)
170 to 172 | N#Cc1ccc(-c2ccc(OCCCC(=O)NO)cc2)cc1
110 to 111 | CCc1cccc(CC)c1N(CCCC(=O)O)C(=O)CCN(C(C)=O)c1c(C)cccc1C
118 to 120 | NS(=O)(=O)Oc1cc(C(F)(F)F)cc(C(F)(F)F)c1
114 to 115 | CCOC(=O)C(Cl)=Cc1cc(-n2c(Cl)nc(C(F)(F)F)cc2=O)ccc1Cl
196 to 198 | Cc1c(C(N)=NO)ncn1-c1cccc(Oc2ccccc2)c1
108 to 110 | COc1c(S(=O)(=O)NCc2ccc(Cl)cc2)cc(Br)c2ccc(C)nc12
98 to 100 | Nn1c(C(F)(F)F)ccc(-c2ccc(Cl)cc2Cl)c1=O
156 to 158 | CC(=NO)C(C)(C)NCCN(C)NC(C)(C)C(Cn1ccnc1[N+](=O)[O-])=NO
132 to 134 | CCCCOc1cc(C)c(NC(=O)C(C)Br)c(C)c1 (centres undefined)
201 to 202 | COc1cc(Nc2ncc3c(n2)-c2ccccc2CCC3)cc(OC)c1OC
181 | CCN(CC)c1ccc(N2C[C@H](CNC(=O)c3ccc(Cl)s3)OC2=O)cc1
138 to 140 | CCCCNC(=O)N(C(=O)NCCCC)c1c(OC(=O)N(CC)CC)nc(C)c2cc(OC)c(OC)cc12
139 to 141 | CN(C)C(=NCCN1CCC(C(=O)c2ccc(F)cc2)CC1)NC#N
174 to 175 | CC(C)(C)c1ccc(C(=O)n2c3c(c4ccccc42)CC(C(=O)O)CC3)cc1 (centres undefined)
167 to 169 | COC(=O)Cc1nsc(NC(=O)OC)n1
116 to 118 | CSc1ccc(-c2cc(-n3ccc(C(F)(F)F)n3)c3ccccc3n2)cc1
55 | OCc1ccccc1-c1noc2ccccc12

Structure (SMILES) | melting point [°C]
CCCCCC(C)C(C)c1cc(O)c2c(c1)OC(C)(C)C1=C2CN(CC(=O)NC(=O)Nc2ccccc2)CC1 (centres undefined) | 159 to 161
O=c1[nH]c2cc(Cl)ccc2c(=O)n1-c1ccccc1 | > 300
